Here are results for 17 compounds from US20210261539A1, “COMPOUND HAVING BET INHIBITORY ACTIVITY AND PREPARATION METHOD AND USE THEREFOR” (Shanghai Haihe Pharmaceutical Co., Ltd., priority 2018, published 2021).

What is called IC50 is the point on the concentration scale where inhibition reaches its midpoint. A lower IC50 goes with greater potency.

The target in the first assay is T1, BRD4 BD1 (Homo sapiens, UniProt O60885).
T1 construct: Protein BRD4 BD1 used in the assay was purchased from Active Motif (cat. 31380); purchased Active Motif 31380
The assay is described as follows: HTRF in vitro enzyme activity assay, inhibition of BRD4 BD1 binding to acetylated H4 peptide. The conditions noted are these: IC50 values of the compounds against BRD4 BD1 binding; class symbols A/B/C. The method in brief:
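Recombinant human BRD4 BD1 (30 nM final) incubated with compound and biotinylated tetra-acetylated H4(1-21) peptide, 30 min at 37 °C; 5-point 1:5 dilution series, 0.1% DMSO final. HTRF read after 3 h at RT with SA-XL665 and Eu(K)-labelled antibody; IC50 derived.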
`C[C@H]1Oc2nc(N3C(=O)c4cc(F)ccc4C3c3cccnc3)ncc2N(C)C1=O` (stereo partly drawn) [Example A116-P3, (7R)-2-(5-fluoro-3-oxo-1-(pyridin-3-yl)isoindolin-2-yl)-5,7-dimethyl-5H-pyrimido[4,5-B][1,4]oxazin-6(7H)-one] had a half-maximal inhibitory concentration (IC50) of 100 to 1000 nM. `CC1C(=O)N(C)c2ccc(N3C(=O)c4ccccc4C3Cc3ccccc3)nc2N1C1CC1` (racemic) [Example A37, 4-cyclopropyl-6-(1-benzyl-3-oxoisoindolin-2-yl)-1,3-dimethyl-3,4-dihydropyrido [2,3-b]pyrazin-2(1H)-one] had an IC50 of 100 to 1000 nM. The compound `C[C@@H]1C(=O)N(C)c2cnc(N3C(=O)c4c(cccc4[S+](C)[O-])C3c3cccnc3)nc2N1C` (stereo partly drawn) [A102-P2/P3, (7R)-5,7,8-trimethyl-2-(4-(methylsulfinyl)-3-oxo-1-(pyridin-3-yl)isoindolin-2-yl)-7,8-dihydropteridin-6(5H)-one] displayed a half-maximal inhibitory concentration (IC50) of at most 10 nM. The compound `Cc1ccc(-n2c3ccccc3c(=O)n2-c2ccc3c(n2)N(C2CC2)C(C)C(=O)N3C)cn1` (single isomer, unassigned) [Example A50-P1, 6-(1-(6-methyl-pyridin-3-yl)-3-oxo-1,3-dihydro-2H-indazol-2-yl)-4-cyclopropyl-1-methyl-3-methyl-3,4-dihydropyridine [2,3-b]pyrazin-2(1H)-one] came in with a 50% inhibitory concentration (IC50) of at most 10 nM. The same measure, in the same setting: then `CC1C(=O)N(C)c2ccc(N3C(=O)c4ccccc4C3c3ccc(F)cn3)nc2N1C1CC1` (single isomer, unassigned) [Example A68-P3, 4-cyclopropyl-6-(1-(5-fluoropyridin-2-yl)-3-oxoisoindolin-2-yl)-1,3-dimethyl-3,4-dihydropyrido[2,3-b]pyrazin-2(1H)-one], with at most 10 nM; and `CCN1C(=O)C(C)N(C2CC2)c2nc(N3C(=O)c4ccccc4C3c3cccnc3)ccc21` (centres unmarked) [Example A49-P4, 4-cyclopropyl-1-ethyl-3-methyl-6-(1-oxo-3-(pyridin-3-yl)isoindolin-2-yl)-3,4-dihydropyrido [2,3-b]pyrazin-2-(1H)-one], with at most 10 nM.

As for `C[C@H]1Oc2nc(N3C(=O)c4sccc4C3c3cccnc3)ccc2N(C)C1=O` (single isomer, unassigned) [Example A115-P1], the IC50 was at most 10 nM.

`C[C@H]1Oc2nc(N3C(=O)c4ccccc4C3c3cccnc3)ccc2N(C)C1=O` (stereo partly drawn) [Example A33-P1, (R)-1,3-dimethyl-6-(1-oxo-3-(pyridin-3-yl)isoindolin-2-yl)-1H-pyrido[2,3-B][1,3]oxazin-2(3H)-one] showed an IC50 of at most 10 nM. `C[C@H]1Oc2nc(N3C(=O)c4cc(F)ccc4C3c3cccnc3)c(F)cc2N(C)C1=O` (stereo partly drawn) [Example A118, (3R)-7-fluoro-6-(5-fluoro-3-oxo-1-(pyridin-3-yl)isoindolin-2-yl)-1,3-dimethyl-1H-pyrido[2,3-B][1,4]oxazin-2(3H)-one] displayed a half-maximal inhibitory concentration (IC50) of 100 to 1000 nM. `CCN1C(=O)C(C)N(C2CCCC2)c2nc(N3C(=O)c4ccccc4C3c3ccc(F)cc3)ccc21` (racemic) [Example A24, 4-cyclopentyl-1-ethyl-6-(1-(4-fluorophenyl)-3-oxoisoindolin-2-yl)-3-methyl-3,4-dihydropyrido[2,3-b]pyrazin-2(1H)-one] yielded an IC50 of 10 to 100 nM. Regarding `C[C@H]1Oc2nc(N3C(=O)c4ccccc4C3c3ccc(F)nc3)ncc2N(C)C1=O` (single isomer, unassigned) [Example A105-P1], the half-inhibitory concentration (IC50) was in the range of 10 to 100 nM. Consider `C[C@@H]1C(=O)N(C)c2cnc(N3C(=O)c4c(cccc4S(C)(=O)=O)C3c3cccnc3)nc2N1C` (stereo partly drawn) [Example A103-P1, (7R)-5,7,8-trimethyl-2-(4-(methylsulfonyl)-3-oxo-1-(pyridin-3-yl)isoindolin-2-yl)-7,8-dihydropteridin-6(5H)-one], for which the half-inhibitory concentration (IC50) is at most 10 nM. In the case of `CC1C(=O)N(C)c2ccc(N3C(=O)c4ccccc4C3c3ccc(Cl)cc3)nc2N1C1COC1` (centres unmarked) [Example A31-P3, 6-(1-(4-chlorophenyl)-3-oxoisoindolin-2-yl)-1,3-dimethyl-4-(oxacyclebutan-3-yl)-3,4-dihydropyrido [3,2-B]pyrazin-2(1H)-one], the IC50 was at most 10 nM. For the compound `Cc1ccc(C2c3ccccc3C(=O)N2c2ccc3c(n2)O[C@H](C)C(=O)N3C)cn1` (single isomer, unassigned) [Example A112-P1], the half-maximal inhibitory concentration (IC50) is at most 10 nM. Same read-out and setting: then `CCN1C(=O)C(C)N(C2CCCC2)c2nc(-n3c(=O)c4ccccc4n3-c3ccc(Cl)cc3)ccc21` (racemic) [Example A28, 6-(1-(4-chlorophenyl)-3-oxo-1,3-dihydro-2H-indazol-2-yl)-4-cyclopentyl-1-ethyl-3-methyl-3,4-dihydropyridine [2,3-b]pyrazin-2(1H)-one], with 10 to 100 nM; and `C[C@H]1Oc2cc(N3C(=O)c4ccccc4C3c3ccc(F)nc3)ncc2N(C)C1=O` (single isomer, unassigned) [Example A125-P1], with 100 to 1000 nM.

The test system of the next assay is human NMC-derived xenograft.
Test: not given
The following applies: human NMC-derived xenograft mouse model; cited from earlier work. A general note: A xenograft is tissue or cells of one species grown in another, often human tumour cells in immunodeficient mice.
Regarding `Cc1sc2c(c1C)C(c1ccc(Cl)cc1)=N[C@@H](CC(=O)OC(C)(C)C)c1nnc(C)n1-2` [JQ1], the “tumor squamous differentiation and growth” value was “inhibited tumor squamous differentiation and growth and caused regression”.
